Assay [1] can be described thus: Inhibition of 20s immunoproteasome beta5 chymotrypsin-like activity in human spleen using Suc-Leu-Leu-Val-Tyr-AMC as substrate after 10 mins by fluorescence assay.
The nature of assay [2]: Inhibition of 20s immunoproteasome beta1 caspase-like activity in human spleen using Ac-Pro-Ala-Leu-AMC as substrate after 10 mins by fluorescence assay.
Assay [3] in a line: Inhibition of 20s immunoproteasome beta2 trypsin-like activity in human spleen using Boc-Leu-Arg-Arg-AMC as substrate after 10 mins by fluorescence assay.
Assay [4] can be described thus: Inhibition of 20s constitutive proteasome beta2 trypsin-like activity in human erythrocytes using Boc-Leu-Arg-Arg-AMC as substrate after 10 mins by fluorescence assay.
A short description of assay [5]: Inhibition of 20s constitutive proteasome beta1 caspase-like activity in human erythrocytes using Z-Leu-Leu-Glu-AMC as substrate after 10 mins by fluorescence assay.

Molecules are shown by their SMILES.

Among the data in BindingDB's records for doi:10.1016/j.bmcl.2017.12.053 (n/a, 2018) are Ki values, retold here.

Turning to `COc1ccc(/C=C2\NC(=S)N(c3ccccc3)C2=O)cc1OC`, the results for the Ki in assay [1] and in assay [2] were 2.01 µM and 2.64 µM, respectively.
As for `COc1cc(/C=C2\NC(=S)N(c3ccccc3)C2=O)ccc1O`, the inhibitory constant (Ki) in assay [3] was determined as 6.71 µM; in assay [1], 11.5 µM.
Take `CSc1ccc(/C=C2\NC(=S)N(c3ccccc3)C2=O)cc1`: the Ki in assay [3] was 4.38 µM; in assay [4] it was 20 µM.
The compound `COc1ccc(/C=C2\NC(=S)N(c3ccccc3)C2=O)cc1` showed a Ki in assay [1] of 10.9 µM.
For `O=C1/C(=C/c2ccc(Oc3ccccc3)cc2)NC(=S)N1c1cccc2ccccc12`, the figures for the Ki in assay [3] and in assay [5] were 5.57 µM and 9.64 µM, respectively.
Take `COc1ccc(/C=C2\NC(=S)N(c3ccccc3)C2=O)cc1O`: the Ki came to 2.35 µM in assay [1] and 6.53 µM in assay [2].
